The values that follow come from ChEMBL document CHEMBL1137999, “A novel series of p38 MAP kinase inhibitors for the potential treatment of rheumatoid arthritis” (Bioorg Med Chem Lett, 2004).

≈ marks a conversion by molar mass, not a printed value.

The species named for series [1] is Homo sapiens. The series is described as follows: tissue or blood.
For series [2], the target named is Mitogen-activated protein kinase 14 (Homo sapiens, UniProt Q16539).
Series [3] can be described thus: cells. To be noted: Homo sapiens.
Series [4] can be described thus: Area under plasma-time concentration curve when administered at 1 mg/kg dose. In kind it is ADME, organism-based. On the set-up: dose 1 mg/kg. The conditions noted are these: rat.
The species entered for series [5] is Mus musculus. The series can be described thus: animal or person. Type of series: functional.
The species named for series [6] is Mus musculus. The series is described as follows: animal or person. In kind it is functional. The source holds these as a separate data set.
Series [7] is filed under the species Mus musculus. The series is described as follows: animal or person. Type of series: functional. The source holds these as a separate data set.
Series [8] is described as follows: Oral bioavailability at 3 mg/kg. To be noted: rat, in vivo, read-out: Bioavailabiility. Type of series: ADME, organism-based.
The nature of series [9]: Protein binding was determined in human. Type of series: ADME.
Series [10] in a line: Solubility was determined. Type of series: physicochemical.
Series [11] is described as follows: Volume distribution after iv administration of 1 mg/kg. Type of series: ADME, organism-based. Further details: dose 1 mg/kg, route intravenous. To be noted: rat, in vivo, read-out: Distribution.
Series [12] can be described thus: Log D value at pH 7.4. Type of series: physicochemical. To be noted: buffer.

Sequence of Mitogen-activated protein kinase 14 (Q16539 whole entry): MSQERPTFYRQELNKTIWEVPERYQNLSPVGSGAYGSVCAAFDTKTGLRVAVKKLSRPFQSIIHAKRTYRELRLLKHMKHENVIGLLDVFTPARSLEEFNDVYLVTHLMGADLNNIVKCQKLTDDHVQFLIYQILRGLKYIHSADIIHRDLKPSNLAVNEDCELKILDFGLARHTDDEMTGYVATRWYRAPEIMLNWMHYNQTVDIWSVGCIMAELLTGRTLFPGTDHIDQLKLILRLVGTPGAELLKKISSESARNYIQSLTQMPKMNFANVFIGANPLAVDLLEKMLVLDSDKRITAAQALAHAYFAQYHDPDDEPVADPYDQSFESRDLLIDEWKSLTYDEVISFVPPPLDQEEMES

Take `Cc1ccc(NC(=O)c2cccc(N3CCOCC3)c2)cc1NC(=O)c1ccc(OCc2cccnc2)cc1`: the IC50 came to 14.7 µM in [1] and 0.09 µM in series [2].

On to `COc1ccc(C(=O)Nc2cc(NC(=O)c3cccc(N(C)C)c3)ccc2Cl)cc1OC`, for which the figures for the IC50 in series [2] and in series [3] were 0.22 µM and 6.4 µM, respectively.

On to `Cc1ccc(NC(=O)c2cccc(N3CCOCC3)c2)cc1NC(=O)c1ccc(OCc2cscn2)cc1`, for which the AUC in series [4] was less than 0.12 µM·h. This molecule showed an inhibition in vivo at 3 mg/kg in series [5] of 28%. The same molecule returned an inhibition in vivo at 30 mg/kg in series [6] of 56%. Besides, at 10 mg/kg the inhibition in vivo in series [7] was 44%.

In series [2], `COc1ccc(C(=O)Nc2cccc(NC(=O)c3cccc(N(C)C)c3)c2)cc1OC` returned an IC50 of more than 20 µM.

For `Cc1ccc(NC(=O)c2cc(F)cc(N3CCOCC3)c2)cc1NC(=O)c1ccc(OCc2ccncc2)cc1`, the IC50 in series [1] stood at 3.4 µM; in series [2] it was 0.01 µM. In series [4], this molecule returned an AUC of less than 0.02 µM·h. The molecule further had an inhibition in vivo at 30 mg/kg in [6] (dose 30 mg/kg) of 40%. In [7] (dose 10 mg/kg), this molecule displayed an inhibition in vivo at 10 mg/kg of 24%.

For `COc1ccc(C(=O)Nc2cc(NC(=O)c3cccc(N(C)C)c3)ccc2C)cc1`, the concentration for half-maximal inhibition (IC50) was 0.18 µM in series [2] and more than 50 µM in series [3].

Regarding `Cc1ccc(NC(=O)c2ccnc(N3CCOCC3)c2)cc1NC(=O)c1ccc(OCc2ccccn2)cc1`, the IC50 worked out at 2.8 µM in series [1] and 0.01 µM in series [2]. In addition, the bioavailability in [8] was 46%. The molecule further gave a Binding in series [9] of 99.89%. The molecule also came in with a solubility in series [10] of less than 1 µM. The Vd in series [11] turned out to be 1.6 L/kg.

For `COCCOc1ccc(C(=O)Nc2cc(NC(=O)c3cccc(N(C)C)c3)ccc2C)cc1`, the IC50 in [2] was determined as 0.27 µM; in [3], 3.4 µM.

On to `COc1ccc(C(=O)Nc2cc(NC(=O)c3cccc(N(C)C)c3)ccc2Br)cc1OC`, for which the IC50 came out at 0.34 µM in series [2] and 9.5 µM in series [3].

With `Cc1ccc(NC(=O)c2cc(F)cc(N3CCOCC3)c2)cc1NC(=O)c1ccc(OCc2cscn2)cc1`, the IC50 in series [1] worked out at 2.5 µM; in series [2], 0.01 µM. In series [4], this molecule gave an AUC of 0.71 µM·h. Moreover, the inhibition in vivo at 30 mg/kg in series [6] stood at 81%. The same molecule showed an inhibition in vivo at 10 mg/kg in series [7] of 37%.

Take `Cc1ccc(NC(=O)c2cc(F)cc(N3CCCC3)c2)cc1NC(=O)c1ccc(OCc2ccccn2)cc1`: the AUC in [4] amounted to 0.07 µM·h. Moreover, 30 mg/kg produced 7% inhibition in vivo in [6]. The same molecule displayed an inhibition in vivo at 10 mg/kg in [7] of 3%.

Molecule `Cc1ccc(NC(=O)c2cccc(N3CCOCC3)c2)cc1NC(=O)c1ccc(OCc2ccccn2)cc1` had an AUC in series [4] of 1.38 µM·h. Moreover, in series [6] (dose 30 mg/kg), 30 mg/kg produced 59% inhibition in vivo.

Take `CCOCCOc1ccc(C(=O)Nc2cc(NC(=O)c3cccc(N(C)C)c3)ccc2C)cc1`: the IC50 was determined as 0.31 µM in series [2] and 9.5 µM in series [3].

In the case of `CCOc1ccc(C(=O)Nc2cc(NC(=O)c3cccc(N(C)C)c3)ccc2C)cc1`, the IC50 in series [2] is 0.06 µM; in series [3], 7 µM.

Turning to `Cc1ccc(NC(=O)c2cccc(N(C)C)c2)cc1NC(=O)c1ccc(O)cc1`, the IC50 in series [2] is 0.18 µM; in series [3], more than 50 µM. Moreover, in series [9], the Binding is on record as 99.7%. The molecule further came in with a solubility in [10] of 10 µM (≈ 3.89 µg/mL). The molecule further gave a logD in series [12] of 2.7.

Turning to `Cc1ccc(NC(=O)c2cc(F)cc(N3CCOCC3)c2)cc1NC(=O)c1ccc(OCc2ccccn2)cc1`, the IC50 came out at 11.2 µM in series [1] and 0.06 µM in series [2]. The molecule also yielded an AUC in series [4] of 0.13 µM·h. This molecule also gave an inhibition in vivo at 30 mg/kg in series [6] (dose 30 mg/kg) of 43%.

`COc1cc(C(=O)Nc2cc(NC(=O)c3cccc(N(C)C)c3)ccc2C)cc(OC)c1OC`: the results for the IC50 in [2] and in [3] were 0.23 µM and 3.9 µM, respectively.

Consider `Cc1ccc(NC(=O)c2cccc(N3CCOCC3)c2)cc1NC(=O)c1ccc(OCc2ccncc2)cc1`, for which the IC50 is 3.3 µM in series [1] and 0.02 µM in [2]. Also, the AUC in series [4] came out at 0.13 µM·h. Besides, the inhibition in vivo at 3 mg/kg in [5] (dose 3 mg/kg) stood at 14%. In series [6] (dose 30 mg/kg), this molecule registered an inhibition in vivo at 30 mg/kg of 75%. The inhibition in vivo at 10 mg/kg in series [7] (dose 10 mg/kg) is 43%.

As for `COc1ccc(C(=O)Nc2ccc(C)c(NC(=O)c3cccc(N(C)C)c3)c2)cc1OC`, the IC50 in series [2] is more than 20 µM.

The molecule `COc1ccc(C(=O)N(C)c2cc(NC(=O)c3cccc(N(C)C)c3)ccc2C)cc1OC` registered an IC50 in [2] of more than 20 µM.

`COc1ccc(C(=O)Nc2cc(NC(=O)c3cccc(N(C)C)c3)ccc2C)c(OC)c1`: the figures for the IC50 in [2] and in series [3] were 0.1 µM and more than 50 µM, respectively.

Regarding `CCOc1ccc(C(=O)Nc2cc(NC(=O)c3cccc(N(C)C)c3)ccc2C)cc1OCC`, the figures for the IC50 in series [2] and in series [3] were 0.05 µM and 4.5 µM, respectively.

With `COc1ccc(C(=O)Nc2cc(NC(=O)c3cccc(N(C)C)c3)ccc2F)cc1OC`, the IC50 in series [2] was 1.9 µM; in series [3], 22 µM.

For the molecule `Cc1nc(COc2ccc(C(=O)Nc3cc(NC(=O)c4cccc(N5CCOCC5)c4)ccc3C)cc2)cs1`, the 50% inhibitory concentration (IC50) in series [1] was 14.6 µM; in series [2], 0.02 µM. Besides, the AUC in [4] was found to be 2.03 µM·h. In series [5] (dose 3 mg/kg), this molecule had an inhibition in vivo at 3 mg/kg of 33%. At 30 mg/kg the inhibition in vivo in series [6] (dose 30 mg/kg) was 71%. In series [7] (dose 10 mg/kg), this molecule showed an inhibition in vivo at 10 mg/kg of 44%.

In the case of `Cc1ccc(NC(=O)c2cc(N3CCOCC3)cc(C(F)(F)F)c2)cc1NC(=O)c1ccc(OCc2ccccn2)cc1`, the IC50 in series [1] came to 10.2 µM; in series [2], 0.02 µM. Moreover, the AUC in series [4] was 0.04 µM·h. The molecule also returned an inhibition in vivo at 30 mg/kg in [6] (dose 30 mg/kg) of 55%. The molecule further gave an inhibition in vivo at 10 mg/kg in series [7] (dose 10 mg/kg) of 4%.

Turning to `Cc1ccc(NC(=O)c2cccc(N3CCOCC3)c2)cc1NC(=O)c1ccc(OCc2ccccc2)cc1`, the values for the IC50 in [1] and in series [2] were 40 µM and 0.03 µM, respectively.

For the molecule `COc1ccc(C(=O)Nc2cc(NC(=O)c3cccc(N(C)C)c3)ccc2C)cc1OC`, the half-maximal inhibitory concentration (IC50) was determined as 0.18 µM in series [2] and 6.4 µM in series [3].

On to `Cc1nc(COc2ccc(C(=O)Nc3cc(NC(=O)c4cc(F)cc(N5CCOCC5)c4)ccc3C)cc2)cs1`, for which the results for the IC50 in series [1] and in series [2] were 2.8 µM and 0.09 µM, respectively. For the same molecule, the AUC in [4] came to 0.73 µM·h. In addition, 3 mg/kg produced 0% inhibition in vivo in [5] (dose 3 mg/kg). This molecule also yielded an inhibition in vivo at 30 mg/kg in series [6] (dose 30 mg/kg) of 35%. Besides, the inhibition in vivo at 10 mg/kg in series [7] (dose 10 mg/kg) was found to be 27%.

As for `C[S+]([O-])c1ccc(-c2nc(-c3ccc(F)cc3)c(-c3ccncc3)[nH]2)cc1` (centres undefined) [SB-203580], the inhibition in vivo at 3 mg/kg in [5] came to 0%. For the same molecule, the inhibition in vivo at 30 mg/kg in series [6] was found to be 50%. For the same molecule, in series [7], at 10 mg/kg the inhibition in vivo was 47%.

The IC50 is the concentration that gives 50% inhibition. By AUC is commonly meant concentration integrated over time. Higher therefore signals high exposure. For orientation: inhibition in vivo means the percentage by which the read-out fell short of the control. For orientation: solubility means the dissolved amount per volume that the medium holds. A higher solubility goes with much dissolved substance. As a reminder, the logD is lipophilicity at a set pH, counting ionised and neutral species. Read a low logD as lower lipophilicity.
